Laboratory results published in patent publication EP0299533B1, “High potency sweetening agents” (THE NUTRASWEET COMPANY (a Delaware corporation), priority 1987, dated 1989).
Where a name gives a salt, the structure may show the parent alone. One block for each compound: values may come before it.

Columns and labels:
[1] = Taste test: compound was tasted for sweetness; format: in vivo
Protocol: A mixture of 5-aminomethyltetrazole (0.50 g, 5.05 mmol), sodium hydroxide (0.20 g, 5.00 mmol) and 1.5 ml of water was added to a solution of N-cyclooctyl-N′-(4-cyanophenyl)-S-methylisothiourea (1.52 g, 5.05 mmol) in 15 ml of absolute ethanol. The mixture was heated to 70° for 20 hours. After cooling, the solution was concentrated to dryness and the residue was dissolved in 20 ml of water. The resulting solution was washed with dichloromethane (3 x 20 ml) and then neutralized with a 1 N HCl solution to bring its pH to 7.5. The desired guanidine compound precipitated and was separated out by filtration to give 1.2 g (70%) of white solid. PMR (CD₃OD) δ 7.75 (d, J=8 Hz, 2H), 7.41 (d, J=8 Hz, 2H), 4.70 (s, 2H), 3.82 (m, 1H) and 1.96-1.46 (m, 14H). CMR (DMSO-D6) δ 158.3, 153.3, 144.0, 133.7, 122.0, 119.0, 105.5, 52.8, 37.8, 31.2, 26.8, 24.6 and 22.9. Analysis calculated for C₁₈H₂₄N₈ (0.6 H₂O): C, 59.52; H, 6.99; N, 30.85. Found: C, 59.38; H, 7.07; N, 31.18. The compound was tasted and was sweeet at a concentration of 10 ug/ml.
All the compounds presented in Examples 1 through 42 were tasted and were sweet.

[2] = Stability in aqueous sodium phosphate buffer at pH 3, percent remaining by HPLC; format: physicochemical; settings: for half-life: phosphate buffer
Protocol: Compound 1 above was dissolved in an aqueous sodium phosphate buffer at a pH of 3 at a concentration of 30 µg/ml. The buffer was prepared by adding concentrated phosphoric acid to sodium phosphate […] until the pH was 3.0. This solution was then maintained at 90°C for 6 days. The percent of compound 1 remaining after 6 days was 98%. […] The half-life was estimated to be 177 days in this buffer at 90°C. The stability of the glycine derivative of this compound, i.e., 1′-N-[N-cyclooctylamino(4-cyanophenylimino)methyl]-glycine was determined in the same way as Cpd. 1 except at 70°C and 50°C instead of 90°C. […] The calculated half-life at 90°C is about 2 days.

Structure (SMILES): N#Cc1ccc(N=C(NCc2nnn[nH]2)NC2CCCCCCC2)cc1 [Example 1 HCl salt]
- taste when tasted ([1]; no concentration given): sweet

- remaining at 144 h ([2]; aqueous sodium phosphate buffer pH 3, 30 µg/ml, 90°C, 6 days, HPLC, read-out: percent of compound remaining after 6 days): 98%
- half-life ([2]; pH 3, buffer pH 3, 90°C, estimated): 177 days
Structure (SMILES): N#Cc1ccc(NC(=NCc2nnn[nH]2)NC2CCCCCCC2)cc1 [Example 1, 1'-N-[N-Cyclooctylamino (4-Cyanophenylimino)methyl]-5-Aminomethyltetrazole]
- concentration at which the compound was tasted and was sweet [1]: 10 µg/mL

Structure (SMILES): N#Cc1ccc(NC(=NCc2nnn[nH]2)NC2CC3CCC(=O)CC3C2)cc1 (stereo not drawn) [Example 42, 1′-N-[N′-2-Amino-6-oxo-cis-hydrindane (4-Cyanophenylimino)methyl]-5-Aminomethyltetrazole]
- concentration at which the compound was tasted and was sweet [1]: 100 µg/mL

- half-life ([2]; pH 3, buffer pH 3, 50°C): 13 days
- half-life ([2]; pH 3, buffer pH 3, 70°C): 5 days
Structure (SMILES): N#Cc1ccc(NC(=NCC(=O)O)NC2CCCCCCC2)cc1 [glycine derivative, 1′-N-[N-cyclooctylamino(4-cyanophenylimino)methyl]-glycine, reference compound]
